In patent publication US4406879A, “Phthalazinol preparation” (Nippon Kayaku Kabushiki Kaisha, priority 1979, dated 1983):
Converted amounts (≈) assume the structure as drawn.

Experiments:
[1] = Oral absorption and blood content of Phthalazinol (first pass effect); type: in vivo
[2] = tested on: alcohol dehydrogenase; test: Metabolism of Phthalazinol with alcohol dehydrogenase in the living body; type: in vivo; conditions: before it arrives at the blood circulation system
[3] = Water-solubility and wettability of Phthalazinol; type: physicochemical

absorption velocity ([1]; Phthalazinol subjected to the tests at present): low absorption velocity | Fa ([1]; in vivo, po, administered orally): ~100% | actual Phthalazinol content of the blood relative to the theoretical value ([1]; theoretical value assumes no metabolism and complete absorption): several tenths | metabolism (4-hydroxymethyl converted into inactive 4-carboxyl group) [2]: readily metabolized | wettability with water [3]: low wettability | solubility ([3]; water at 25° C.): ~200 µg/mL (≈ 724 µM)
Compound: CCOC(=O)c1c(C)cc2c(CO)n[nH]c(=O)c2c1C [Phthalazinol, 6,8-Dimethyl-7-ethoxycarbonyl-4-hydroxymethyl-1-phthalazone]
